In patent publication US5457099A, “Carbostyril derivatives and antiallergic agent” (Sawai Pharmaceutical Co., Ltd., priority 1992, dated 1995):
Where two headings read alike, the source gives them in different places.

Key:
[1] = system: passive cutaneous anaphylaxis (PCA) reaction in rats; test: Inhibition of PCA reaction in rats; type: in vivo, Wistar rats; settings: Rattus norvegicus, po, read-out: Inhibition of PCA in rat
Protocol: (§1) Antiserum was prepared according to the method described in J. Immunol., 106, 1002 (1971). The titer (or highest effective dilution which gave a mean 48 hours PCA response of 5 mm in diameter in a rat) of the antiserum used was 1:200.
Wistar rats were passively sensitized by intracutaneous injection of 0.05 ml antiserum diluted 75 times with physiological saline at two sheared sites of dorsal skin. After 48 hours, 0.5ml/animal of 1% Evans blue-physiological saline containing 2mg ovalbumin was administered into caudal vein to elicit the reaction. After 30 minutes, rats were sacrificed by decapitative bleeding and the dorsal skin was flayed. Dye stuff exuded at the reaction site was extracted according to the method described in Microbiol. Immunol., 22, 89 (1978). Briefly, two circular pieces of sensitized areas and one circular piece of unsensitized area (as the control) were punched at 1.8 cm diameter. The disks were placed in test tubes and treated overnight with 1 ml 1N-KOH at 37° C. Then 9ml 0.6N-H3 PO4 /acetone (5/13) was added and the mixture was thoroughly stirred and centrifuged (3000 rpm, 10 minutes). The supernatant was assayed for absorption at 620 nm. The amount of dye stuff was calculated from the standard curve previously prepared with known amounts of Evance blue. The conditions of sensitization and the amount of antigen were based on Nippon Yakurigaku Zasshi (Japanese Journal of Pharmacology),80, 261 (1982).
Test drugs and Oxatomide as a positive control were administered orally before 1 hour of elicitation through a gastric tube at 1 ml/200g body weight. In the test, groups of 6 to 7 animals and groups of 8 to 9 animals were used for test drugs and control, respectively.

[2] = system: experimental asthma in rats; test: Inhibition of experimental asthma in rats; type: in vivo, Wistar rats; settings: Rattus norvegicus, po; for inhibition in vivo at 10 mg/kg: read-out: Inhibition of Experimental Asthma in rat; for inhibition in vivo at 1 mg/kg: other dosage/kg: 1 mg
Protocol: as §1
Wistar rats were passively sensitized by injection into caudal vein of 2.0ml/animal antiserum. After 24 hours, anaphylactic airway contraction caused by administration of antigen was measured by a modified Konzett and Roessler method. Briefly, the animal was fixed at dorsal position under urethane (1.5 g/kg, i.p.) anesthetization and connected with a respirator (Harvard Model 683, respiratory volume: 3-5 ml/respiration; respiratory rate: 72/minute) via an incised tracheal cannula. […] Oxatomide was administered two hours before the test, which is the optimal conditions according to Nippon Yakurigaku Zasshi (Japanese Journal of Pharmacology), 80, 261 (1982), and the other test drugs were orally administered at a rate of 0.2 ml/100 g body weight one hour before the test using a gastric tube. At the end of measurement, the trachea was blocked with a Kocher clamp and the measured values were expressed in percent taking the value at blockage as the maximum contraction (100%).

Row | SMILES | inhibition in vivo at 10 mg/kg ([1]; 10 mg/kg) | inhibition in vivo at 10 mg/kg ([2]; 10 mg/kg) | inhibition in vivo at 1 mg/kg [2] | also measured
1 | O=c1cc(CCCN2CCC(OC(c3ccccc3)c3ccccc3)CC2)c2ccccc2[nH]1 [III-12, 4-[3-[4-(diphenylmethoxy)-1-piperidinyl]propyl]-2(1H)-quinolinone] | 73.6% | 12.1% | – | –
2 | O=C1Cc2ccccc2C(=C2CCN(CCCc3cc(=O)[nH]c4ccccc34)CC2)c2ccsc21 [III-15, 4,9-dihydro-4-[1-[3-(1,2-dihydro-2-oxo-4-quinolyl)propyl]-4-piperidinylidene]-10H-benzo[4, 5]cyclohepta[1,2-b]thiophen-10-one] | 49.9% | 37.5% | – | –
3 | Cc1ccc2c(CCN3CCC(c4c[nH]c5ccccc45)CC3)cc(=O)[nH]c2c1 [III-25, 4-[2-[4-(1H-indol-3-yl)-1-piperidinyl]ethyl]-7-methyl-2-(1H)-quinolinone] | 29.4% | 68.6% | – | –
4 | Cc1cccc2c(CCN3CCC(c4c[nH]c5ccccc45)CC3)cc(=O)[nH]c12 [III-24, 4-[2-[4-(1H-indol-3-yl)-1-piperidinyl]ethyl]-8-methyl-2-(1H)-quinolinone] | 102% | 73.8% | 95.7% | –
5 | Cc1cc(C)c2c(CCN3CCC(c4c[nH]c5ccccc45)CC3)cc(=O)[nH]c2c1 [III-27, 5,7-dimethyl-4-[2-[4-(1H-indol-3-yl)-1-piperidinyl]ethyl]-2(1H)-quinolinone] | 70.9% | 65.8% | – | –
6 | Cn1c(=O)cc(CN2CCC(c3c[nH]c4ccccc34)CC2)c2ccccc21 [III-16, 4-[[4-(1H-indol-3-yl)-l-piperidinyl]methyl]-1-methyl-2(1H)-quinolinone] | – | – | – | inhibition in vivo at 10 mg/kg [1]: 45.6%; inhibition in vivo at 10 mg/kg [2]: 2.57%
7 | O=c1cc(-c2ccccc2)c2ccccc2n1CCCN1CCC(c2c[nH]c3ccccc23)CC1 [VII-5, 1-[3-[4-(1H-indol-3-yl)-piperidinyl]propyl]-4-phenyl-2(1H)-quinolinone] | 6.7% | 50.1% | – | –
8 | O=C1CC(CCN2CCC(c3c[nH]c4ccccc34)CC2)c2ccccc2N1 (stereo not drawn) [IV-1, 3,4-dihydro-4-[2-[4-(1H-indol-3-yl)-1-piperidinyl]ethyl]-2(1H)-quinolinone] | 95.9% | 80.1% | 26.4% | inhibition in vivo at 3 mg/kg ([1]; other dosage/kg: 3 mg): 65.9%
9 | O=C1Cc2ccccc2C(=C2CCN(CCc3cc(=O)[nH]c4ccccc34)CC2)c2ccsc21 [III-14, 4,9-dihydro-4-[1-[2-(1,2-dihydro-2-oxo-4-quinolyl)ethyl]-4-piperidinylidene]-10H-benzo[4, 5]cyclohepta[1,2-b]thiophen-10-one] | 23.1% | 44.8% | – | –
10 | O=c1ccc2cc(Cl)ccc2n1CCCN1CCC(c2c[nH]c3ccccc23)CC1 [VII-1, 1-[3-[4-(1H-indol-3-yl)-piperidinyl]propyl]-6-chloro-2-(1H)-quinolinone] | 12.1% | 40.3% | – | –
11 | O=c1cc(CCN2CCC(OC(c3ccccc3)c3ccccc3)CC2)c2ccccc2[nH]1 [III-11, 4-[2-[4-(diphenylmethoxy)-1-piperidinyl]ethyl]-2(1H)-quinolinone] | 63.6% | 35.6% | – | –
12 | Cn1c(=O)cc(CCN2CCC(c3c[nH]c4ccccc34)CC2)c2ccccc21 [III-17, 4-[2-[4-(1H-indol-3-yl)-1-piperidinyl]ethyl]-1-methyl-2(1H)-quinolinone] | 42.5% | 86.5% | 88.1% | inhibition in vivo at 0.1 mg/kg ([2]; other dosage/kg: 0.1 mg): 96.2%; inhibition in vivo at 0.3 mg/kg ([2]; other dosage/kg: 0.3 mg): 80.9%
13 | O=c1cc(CCN2CCC(c3c[nH]c4ccccc34)CC2)c2ccc(Br)cc2[nH]1 [III-18, 7-bromo-4-[2-[4-(1H-indol-3-yl)-1-piperidinyl]ethyl]-2(1H)-quinolinone] | 45.2% | 84.2% | 62.6% | –
